From ChEMBL document CHEMBL5046260, “Anti-inflammatory Dimeric Tetrahydroxanthones from an Endophytic Muyocopron laterale” (J Nat Prod, 2022) come the findings set out here.

The subject of experiment [1] is RAW264.7. The experiment is described as follows: Antiinflammatory activity in mouse RAW 264.7 cells assessed as inhibition of LPS-induced NO production measured after 24 hrs by Griess assay. The class given is functional, cell-based. The note with it: RAW264.7, 24 h.
Experiment [2] deals with RAW264.7. Put plainly: Antiinflammatory activity in mouse RAW 264.7 cells assessed as inhibition of LPS-induced NO production at 10 uM measured after 24 hrs by Griess assay relative to control. It counts as functional. Also on record: scale not given: the % may be the effect or the level left.

Molecules are shown by their SMILES.

For the molecule `CO[C@H]1CC(=O)O[C@@H]1[C@@]1(C)CC(=O)c2c(cc(C)c(-c3c(C)cc4c(c3O)C(=O)C[C@](C)([C@H]3OC(=O)C[C@@H]3OC)O4)c2O)O1`, the IC50 in the experiment on RAW264.7 [1] amounted to 5.2 µM. The Activity in the experiment on RAW264.7 [2] stood at 72%.

As for `CO[C@H]1CC(=O)O[C@@H]1[C@@]1(C)CC(=O)c2c(cc(C)c(-c3c(C)cc4c(c3O)C(=O)C3=CC[C@H](OC)[C@H](O)[C@]3(C)O4)c2O)O1`, the IC50 in the experiment on RAW264.7 [1] came to 5.1 µM. The Activity in the experiment on RAW264.7 [2] was determined as 84.4%.

As for `CO[C@H]1CC(=O)O[C@@H]1[C@]1(C)CC(=O)c2c(cc(C)c(-c3c(C)cc4c(c3O)C(=O)C[C@@](C)([C@H]3OC(=O)C[C@@H]3OC)O4)c2O)O1`, the IC50 with RAW264.7 [1] is above 10 µM. Further, in the experiment on RAW264.7 [2], the Activity is on record as 5.9%.

In the case of `CO[C@H]1CC(=O)O[C@@H]1[C@]1(C)CC(=O)c2c(O)cc(C)c(-c3c(C)cc4c(c3O)C(=O)C3=C(O)C[C@H](OC)[C@H](O)[C@]3(C)O4)c2O1`, the IC50 in the experiment with RAW264.7 [1] is above 10 µM. Further, the Activity in the experiment on RAW264.7 [2] is listed as 52.7%.

On to `CO[C@H]1CC(=O)O[C@@H]1[C@@]1(C)CC(=O)c2c(cc(C)c(-c3c(C)cc(O)c4c3O[C@](C)([C@H]3OC(=O)C[C@@H]3OC)CC4=O)c2O)O1`, for which the IC50 with RAW264.7 [1] is above 10 µM. For the same molecule, in the experiment on RAW264.7 [2], the Activity was determined as 7.6%.

Consider `CO[C@H]1CC(=O)O[C@@H]1[C@]1(C)CC(=O)c2c(cc(C)c(-c3c(C)cc4c(c3O)C(=O)C3=C(O)C[C@H](OC)[C@H](O)[C@]3(C)O4)c2O)O1`, for which the IC50 with RAW264.7 [1] was above 10 µM. The Activity with RAW264.7 [2] is listed as 36.6%.

As to `CO[C@H]1CC=C2C(=O)c3c(cc(C)c(-c4c(C)cc5c(c4O)C(=O)C4=C(O)C[C@H](OC)[C@H](O)[C@]4(C)O5)c3O)O[C@@]2(C)[C@H]1O`, in the experiment with RAW264.7 [1], the IC50 was determined as 1.3 µM. Moreover, the Activity in the experiment on RAW264.7 [2] was found to be 89.8%.

As for `CO[C@H]1CC(=O)O[C@@H]1[C@@]1(C)CC(=O)c2c(cc(C)c(-c3c(C)cc4c(c3O)C(=O)C[C@@](C)([C@H]3OC(=O)C[C@@H]3OC)O4)c2O)O1`, the concentration for half-maximal inhibition (IC50) in the experiment on RAW264.7 [1] is above 10 µM. In the experiment with RAW264.7 [2], the Activity came to 16.2%.

On to `CO[C@H]1CC(=O)O[C@@H]1[C@@]1(C)CC(=O)c2c(cc(C)c(-c3c(C)cc4c(c3O)C(=O)C3=C(O)C[C@H](OC)[C@H](O)[C@]3(C)O4)c2O)O1`, for which, in the experiment on RAW264.7 [1], the IC50 was above 10 µM. Moreover, in the experiment on RAW264.7 [2], the Activity is reported as 13.2%.

With `CO[C@H]1CC(=O)O[C@@H]1[C@]1(C)CC(=O)c2c(O)cc(C)c(-c3c(C)cc4c(c3O)C(=O)C3=CC[C@H](OC)[C@H](O)[C@]3(C)O4)c2O1`, in the experiment on RAW264.7 [1], the IC50 is above 10 µM. The Activity with RAW264.7 [2] is on record as 33.2%.

With `COc1cc(/C=C/C(=O)CC(=O)/C=C/c2ccc(O)c(OC)c2)ccc1O` [CURCUMIN], the IC50 in the experiment on RAW264.7 [1] came to 2.2 µM. The Activity with RAW264.7 [2] is 79.2%.

As to `CO[C@H]1CC(O)=C2C(=O)c3c(cc(C)c(-c4c(C)cc5c(c4O)C(=O)C4=C(O)C[C@H](OC)[C@H](O)[C@]4(C)O5)c3O)O[C@@]2(C)[C@H]1O`, the IC50 in the experiment with RAW264.7 [1] is above 10 µM. Moreover, in the experiment on RAW264.7 [2], the Activity came out at 52.7%.
